Experiments:
[1] = tested on: Rpe65−/− mice; assay: Analyses of retinoids and visual pigments in eyes of Rpe65−/− mice given 9-cis-retinal; assay type: in vivo, mouse
Experimental: All of the procedures were performed under dim red light as described previously (Van Hooser et al., Proc. Natl. Acad. Sci. USA 97:8623-28 (2000); Jang et al., J. Biol. Chem. 276:32456-65 (2001); Palczewski et al., Biochemistry 38:12012-19 (1999)). In addition to previously described methods, retinoid analysis was performed on an HP 1100 series high pressure liquid chromatograph (HPLC) equipped with a diode array detector and HP Chemstation A.07.01 software, allowing identification of retinoid isomers according to their specific retention time and absorption maxima. A normal phase column (Beckman Ultrasphere Si 5μ, 4.6×250 mm) and an isocratic solvent system of 0.5% ethyl acetate in hexane (v/v) for 15 minutes followed by 4% ethyl acetate in hexane for 60 minutes at a flow rate of 1.4 ml/minute at 20° C. (total 75 min) with detection at 325 nm allowed the separation of 11-cis-, 13-cis-, and all-trans-retinyl esters. In addition, all of the study procedures related to the analysis of dissected mouse eyes, derivatization, and separation of retinoids have been described previously in detail (Van Hooser et al., Proc. Natl. Acad. Sci. USA 97:8623-28 (2000)). Rhodopsin and iso-rhodopsin measurements were performed as described previously (Palczewski et al., Biochemistry 38:12012-19 (1999)). Typically, two mouse eyes were used per assay, and the assays were repeated three to six times. The data are presented with S.E.M.
(§1) Oral gavage was carried out as described previously (Van Hooser et al., Proc. Natl. Acad. Sci. USA 97:8623-28 (2000)).
(§2) The chemicals were purchased from Sigma/Aldrich unless otherwise specified. Solution A contained 10 mg of 9-cis-retinal, 75 mg of Cremophor EL, 1 mg of α-tocopherol, and 0.6 mg of benzoic acid suspended in 1 ml of lactated Ringer's solution (Baxter). The mixture was vortexed for 10 minutes and centrifuged for 10 minutes at 20,000×g, and the concentration of 9-cis-retinal (7.7 mM) was determined spectrophotometrically. Solution B contained 13 mg of 9-cis-retinal, 50 mg of Cremophor EL, 10 mg of dipalmitoylphosphatidyl choline, and 40 mg of 2-hydroxypropyl-β-cyclodextrin suspended in 1 ml of lactated Ringer's solution (Baxter). The mixture was vortexed for 10 minutes and centrifuged for 10 minutes at 20,000×g, and the concentration of 9-cis-retinal (10 mM) was determined spectrophotometrically. Solutions A and B (typically, 100 μl) were delivered to the mouse lateral tail vein employing a 1-ml syringe equipped with a 27-gauge needle and a restraint tube.

[2] = tested on: Rpe65−/− mice; assay: Light and electron microscopy of RPE-ROS interface; assay type: in vivo, mouse
Experimental: Eye cups were prepared by removing the anterior segment and vitreous. […] “Thin” sections (1.0 μm) were stained with Richardson's blue solution (1%) and subjected to light microscopy. “Ultrathin” sections (0.05 μm) were stained with uranyl acetate/lead citrate and subjected to electron microscopy.

[3] = tested on: rods from Rpe65−/− mice; assay: Single cell recordings of isolated rods; assay type: in vivo, mouse
Experimental: Mice were dark-reared from birth and sacrificed via cervical dislocation, and the eyes were removed. The retina was isolated and stored on ice for up to 12 hours in HEPES-buffered Ames' solution (10 mM HEPES, pH adjusted to 7.4 with NaOH). Isolated rods were obtained by shredding a small piece of retina (roughly 1 mm^2) with fine needles in a 160-μl drop of solution. The drop was then injected into a recording chamber mounted on the stage of an inverted microscope (Nikon Eclipse) equipped with an infrared video viewing system and continuously superfused at 2-3 ml/minute with bicarbonate-buffered Ames' solution warmed to 37° C. (pH 7.4 when equilibrated with 5% CO2, 95% O2). The entire dissection was carried out under infrared illumination using a dissecting microscope equipped with infrared-visible image converters.
An isolated rod was drawn by suction into a heat-polished, silanized borosilicate electrode with an opening 1.2-1.5 μm in diameter. The electrode was filled with HEPES-buffered Ames' solution. The electrical connections to the bath and suction electrode were made by NaCl-filled agar bridges that contacted calomel half-cells. Bath voltage was held at ground by an active clamp circuit (Baylor et al. J. Physiol. 354:203-23 (1984)). Membrane current collected by the suction electrode was amplified by an Axopatch 200A patch clamp amplifier (Axon Instruments, Foster City, Calif.), filtered at 30 Hz (3 dB point) with an 8-pole Bessel low pass filter, and digitized at 1 kHz.
Light from light-emitting diodes with peak outputs at 470, 570, and 640 nm were combined using a trifurcated fiber optic and focused on the preparation using a water immersion lens in place of the microscope condensor. The light stimulus was spatially uniform and illuminated a circular area 0.57 mm in diameter centered on the recorded cell. Light intensities were measured at the preparation and converted to equivalent 500-nm photons (max for rod sensitivity) using the absorption spectrum of rhodopsin and the measured light-emitting diode spectrum.

[4] = Retinal in blood circulation after intravenous injection or gavage; assay type: in vivo, mouse; conditions: for t1/2 in the circulation: intravenous injection
Experimental: as §1, §2

[5] = tested on: Rpe65−/− mice; conditions: mouse, in vivo
Experimental: Mice were anesthetized by intraperitoneal injection with 15 μl/g body weight of 6 mg/ml ketamine and 0.44 mg/ml xylazine diluted with 10 mM phosphate buffer, pH 7.2, containing 100 mM NaCl. The pupils were dilated with 1% tropicamide. A contact lens electrode was placed on the eye with a drop of methylcellulose, and a ground electrode (a reference electrode) was placed in the ear. ERGs were recorded with the universal testing and electrophysiologic system 3000 (UTAS E-3000) (LKC Technologies, Inc.). The mice were placed in a Ganzfield chamber, and responses to flash stimuli were obtained from both eyes simultaneously. […] Two to four recordings were made with >10-second intervals. Typically, 4-8 animals were used for recording of each point in all conditions. All ERG measurements were done within 10-40 minutes after anesthesia.

## CC1=C(/C=C/C(C)=C\C=C\C(C)=C\C=O)C(C)(C)CCC1 [9-cis-retinal]
[1]; 0.25 mg
  axial density of iso-rhodopsin as share of rhodopsin in Rpe65+/+ rods: 16%
  free opsin as share of total available pigment: 72%
[1]; 1.25 mg
  axial density of iso-rhodopsin as share of rhodopsin in Rpe65+/+ rods: 21%
  free opsin as share of total available pigment: 63%
[1]; 2.5 mg
  amount of iso-rhodopsin: 300 pmol
  free opsin in rods: no free opsin
  iso-rhodopsin as share of rhodopsin in Rpe65+/+ rods: about 57%
  number of iso-rhodopsin molecules in rods: about 1.2×10^7
[1]; 2.5 mg dose gavage
  iso-rhodopsin formed: 300±25 pmol of iso-rhodopsin/eye
[1]; 2.5 mg, after 48 hour more than three intense flashes at 1-hour intervals
  iso-rhodopsin and 9-cis-retinyl esters after flashes: significantly depleted
[1]; 2.5 mg, five flashes at 24-hour intervals
  retinyl esters from liver and RPE after flashes: completely depleted
[1]; 0.25-mg dose every other day from PND 7 until 30 days old
  all-trans-retinyl ester accumulation: dramatic change in the ester accumulation
[1]; 0.25-mg dose gavage
  iso-rhodopsin formed: 85.6±6.2 pmol/eye
[1]; 1.25-mg dose gavage
  iso-rhodopsin formed: 109.8 pmol of iso-rhodopsin/eye
[1]; 6-month-old (FIG. 2B) compared with FIG. 2A
  decrease of iso-rhodopsin with age: 50%
[1]; 6 month-old Rpe65−/− mice treated twice, 2.5 mg/dose
  reduction of ester levels compared with untreated animals: > 50%
[1]; 6 month-old mice, 2.5 mg/dose twice at PND 30 and 34, 30 and 120, or 30 and 150
  iso-rhodopsin levels between dosing regimens: comparable
[1]; 48 hours after treatment
  pigment deficit of Rpe65−/− rods relative to Rpe65+/+: approximately 40%
[1]; Rpe65−/− mice in the dark
  time rod photopigment is produced and maintained: more than 6 months
[1]; continued administration of 1 dose (1.25 mg) per week after early treatment
  overall amounts of all-trans-retinyl esters: dramatically suppressed
[1]; intravenous injection, addition of cyclodextrin
  accumulation of 9-cis-retinyl esters in the liver or RPE: higher accumulation
[1]; intravenous injection, with and without cyclodextrins
  iso-rhodopsin production: produced iso-rhodopsin
[1]; single 2.5 mg dose at 1 month, 12-hour light/dark cycle or 24 hour dark for 37 days
  depletion of retinal (iso-rhodopsin level): No appreciable depletion of retinal
[1]; treatment began after more than 1 month of age
  removal of accumulated esters in the RPE: not removed
[2]; early treated mice, over several months
  filling of RPE vacuoles (lipid-like droplets): only partially filled
[2]; young animals or young adults treated
  interface contacts between the RPE and ROS: improved
[3]; 0.25 mg
  factor of increase of half-saturating flash intensity over Rpe65+/+ rods: 131
  further desensitization of rods: 6.8 fold
  light-sensitive dark current of rods: 3.6±0.9 pA
[3]; 1.25 mg
  factor of increase of half-saturating flash intensity over Rpe65+/+ rods: 66
  further desensitization of rods: 4.5 fold
[3]; 2.5 mg
  dim flash response kinetics vs Rpe65+/+: essentially the same kinetics
  factor of increase of half-saturating flash intensity over Rpe65+/+ rods: 6
  increase in half-saturating flash strength compared with rods of Rpe65+/+: 6 fold
  rod dark current: essentially the same as Rpe65+/+
[3]; 1.25 or 0.25 mg
  dim flash response time-to-peak and recovery times: substantially faster than those of Rpe65+/+
[3]; Rpe65−/− mice treated with 0.25 mg of 9-cis-retinal
  half-saturating flash intensity I0: 3929 equivalent 500 nm photons/μm^2
[3]; Rpe65−/− mice treated with 1.25 mg of 9-cis-retinal
  half-saturating flash intensity I0: 1995 equivalent 500 nm photons/μm^2
[3]; Rpe65−/− mice treated with 2.5 mg of 9-cis-retinal
  half-saturating flash intensity I0: 164 equivalent 500 nm photons/μm^2
[4]; gavage
  presence of retinal in the bloodstream: greater than 48 hours
[4]; in the presence of cyclodextrins
  t1/2 in the circulation: 23 h
[4]; without cyclodextrins
  t1/2 in the circulation: 12 h
[5]
  ERG activity (a- and b-wave) compared with Me2SO: significantly increased sensitivity
